Results published in ChEMBL document CHEMBL4828735, “Discovery of N-((3S,4S)-4-(3,4-Difluorophenyl)piperidin-3-yl)-2-fluoro-4-(1-methyl-1H-pyrazol-5-yl)benzamide (Hu7691), a Potent and Selective Akt Inhibitor That Enables Decrease of Cutaneous Toxicity” (J Med Chem, 2021).
Activity calls are given as the source filed them. The calls are words filed in the database; no cut-off is given here.

Key:
[1] = Tmax in Sprague-Dawley rat at 2 mg/kg, iv measured upto 24 hrs by LC-MS/MS analysis; format: ADME, organism-based; conditions: in vivo
[2] = Tmax in Beagle dog at 20 mg/kg, ig measured upto 96 hrs by LC-MS/MS analysis; format: ADME, organism-based, Canis lupus familiaris; conditions: in vivo, po
[3] = Cmax in Beagle dog at 20 mg/kg, ig measured upto 96 hrs by LC-MS/MS analysis; format: ADME, organism-based, Canis lupus familiaris; parameters: route […], dose 20 mg/kg, time <=96; conditions: in vivo, po
[4] = Antiproliferative activity against human HPDE6c7 cells assessed as inhibition of cell growth incubated for 72 hrs by SRB method; format: cell-based; conditions: HPDE6c7, 72 h
MDA-MB-231 = test: Antiproliferative activity against human MDA-MB-231 cells assessed as inhibition of cell growth incubated for 72 hrs by SRB method; format: functional, cell-based; conditions: MDA-MB-231, 72 h
[5] = AUC(0 to t) in Sprague-Dawley rat at 2 mg/kg, iv measured upto 24 hrs by LC-MS/MS analysis; format: ADME, organism-based; parameters: route intravenous, dose 2 mg/kg, time <=24; conditions: in vivo
[6] = Toxicity in BALB/c nude mouse xenografted with human KHOS cells assessed as change in body weight at 12.5 to 50 mg/kg, ig administered once daily for 22 days; format: organism-based; conditions: in vivo, po, 528 h, dose 12.5-50 mg/kg, time 22 day
[7] = Toxicity in mouse assessed as weight loss at 150 mg/kg; format: organism-based; conditions: in vivo
Cytochrome P450 3A5 = Cytochrome P450 3A5 (Homo sapiens, UniProt P20815); test: Inhibition of CYP3A5 (unknown origin); format: ADME
Cytochrome P450 3A5, sequence (P20815 whole entry): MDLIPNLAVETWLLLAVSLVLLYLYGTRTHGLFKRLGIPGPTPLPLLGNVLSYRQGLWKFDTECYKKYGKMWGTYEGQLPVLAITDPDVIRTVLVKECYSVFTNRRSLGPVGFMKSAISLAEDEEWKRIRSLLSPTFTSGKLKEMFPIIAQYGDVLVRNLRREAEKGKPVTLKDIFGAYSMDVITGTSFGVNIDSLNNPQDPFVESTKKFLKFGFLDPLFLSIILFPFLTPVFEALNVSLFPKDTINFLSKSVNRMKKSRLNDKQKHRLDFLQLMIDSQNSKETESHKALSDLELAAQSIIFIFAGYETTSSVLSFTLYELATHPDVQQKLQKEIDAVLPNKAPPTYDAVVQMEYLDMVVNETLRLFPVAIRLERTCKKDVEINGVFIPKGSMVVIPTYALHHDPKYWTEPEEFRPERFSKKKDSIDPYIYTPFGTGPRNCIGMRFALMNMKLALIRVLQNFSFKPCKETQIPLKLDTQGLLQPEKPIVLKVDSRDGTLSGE

[8] = Toxicity in BALB/c nude mouse xenografted with human 786-0 cells assessed as change in body weight at 12.5 to 50 mg/kg, ig administered once daily for 22 days; format: organism-based; conditions: in vivo, po, 528 h, dose 12.5-50 mg/kg, time 22 day
[9] = Microsomal stability in dog liver microsomes assessed as half life at 50 uM preincubated for 5 mins with NADPH followed by compound addition and measured upto 60 mins by LC-MS/MS analysis; format: ADME, Canis lupus familiaris, Microsome
[10] = Toxicity in Sprague-Dawley rat assessed as effect on spleen at 25 to 75 mg/kg administered daily for 4 weeks by histopathological analysis; format: organism-based; conditions: in vivo, 672 h, dose 25-75 mg/kg
[11] = biological target: RAC-alpha serine/threonine-protein kinase (Homo sapiens, UniProt P31749); test: Inhibition of N-terminal GST-tagged human AKT1 (104 to 408 residues) expressed in baculovirus infected Sf21 cells incubated for 1 hr in presence of ATP by mobility shift assay
RAC-alpha serine/threonine-protein kinase, sequence (P31749 whole entry, the tested form may be a part): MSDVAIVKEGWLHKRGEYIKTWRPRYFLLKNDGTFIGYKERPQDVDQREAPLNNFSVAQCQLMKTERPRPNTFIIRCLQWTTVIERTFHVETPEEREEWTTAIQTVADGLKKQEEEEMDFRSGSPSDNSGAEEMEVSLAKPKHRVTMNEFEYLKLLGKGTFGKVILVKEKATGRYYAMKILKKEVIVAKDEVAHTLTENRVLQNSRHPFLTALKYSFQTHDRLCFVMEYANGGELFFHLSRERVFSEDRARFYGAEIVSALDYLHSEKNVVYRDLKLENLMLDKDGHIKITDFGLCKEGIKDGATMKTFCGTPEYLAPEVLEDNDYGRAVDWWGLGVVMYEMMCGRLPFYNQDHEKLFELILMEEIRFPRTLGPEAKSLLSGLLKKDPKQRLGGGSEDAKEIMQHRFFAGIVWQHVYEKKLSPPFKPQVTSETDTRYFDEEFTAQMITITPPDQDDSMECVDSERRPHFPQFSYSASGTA

786-0 [12] = test: Antiproliferative activity against human 786-0 cells assessed as inhibition of cell growth incubated for 72 hrs by SRB method; format: functional, cell-based; conditions: 786-0, 72 h
[13] = Toxicity in Sprague-Dawley rat assessed as effect on ovaries at 25 to 75 mg/kg administered daily for 4 weeks by histopathological analysis; format: organism-based; conditions: in vivo, 672 h, dose 25-75 mg/kg
U-87 MG = test: Antiproliferative activity against human U-87MG cells assessed as inhibition of cell growth incubated for 72 hrs by SRB method; format: functional, cell-based, U-87MG ATCC
[14] = Drug metabolism in po dosed Sprague-Dawley rat feces assessed as M1 metabolite formation measured upto 24 hrs by UPLC-TOF-MS/MS analysis; format: ADME, organism-based; conditions: in vivo
[15] = Inhibition of PKA (unknown origin); parameters: species or system Homo sapiens
[16] = AUC(0 to t) in Sprague-Dawley rat at 15 mg/kg, ig measured upto 72 hrs by LC-MS/MS analysis; format: ADME, organism-based; parameters: route […], dose 15 mg/kg, time <=72; conditions: in vivo, po
KHOS/NP [17] = test: Antiproliferative activity against human KHOS cells assessed as inhibition of cell growth incubated for 72 hrs by SRB method; format: functional, cell-based
KHOS/NP [18] = test: Antitumor activity against human KHOS cells xenografted in dosed BALB/c nude mouse assessed as tumor growth inhibition at 25 mg/kg, ig administered once daily for 22 days; format: functional, organism-based; conditions: time 22.0 day
[19] = Drug metabolism in po dosed Sprague-Dawley rat blood assessed as M1 metabolite formation measured upto 6 hrs by UPLC-TOF-MS/MS analysis; format: ADME, organism-based; conditions: in vivo
[20] = Toxicity in Sprague-Dawley rat assessed as effect on bone marrow at 25 to 75 mg/kg administered daily for 4 weeks by histopathological analysis; format: organism-based; conditions: in vivo, 672 h, dose 25-75 mg/kg
[21] = Toxicity in Sprague-Dawley rat assessed as increase in body weight at 75 mg/kg administered daily for 4 weeks; format: organism-based; conditions: in vivo, 672 h
[22] = Cmax in Sprague-Dawley rat at 15 mg/kg, ig measured upto 72 hrs by LC-MS/MS analysis; format: ADME, organism-based; parameters: route […], dose 15 mg/kg, time <=72; conditions: in vivo, po
[23] = Toxicity in mouse assessed as prone posture at 150 mg/kg; format: organism-based; conditions: in vivo
[24] = Toxicity in Sprague-Dawley rat assessed as increase in body weight at 25 to 50 mg/kg administered daily for 4 weeks; format: organism-based; conditions: in vivo, 672 h, dose 25-50 mg/kg
HGC-27 = test: Antiproliferative activity against human HGC-27 cells assessed as inhibition of cell growth incubated for 72 hrs by SRB assay; format: functional, cell-based; conditions: HGC-27, 72 h
SMMC-7721 = test: Antiproliferative activity against human SMMC-7721 cells assessed as inhibition of cell growth incubated for 72 hrs by SRB method; format: functional, cell-based; conditions: SMMC-7721, 72 h
[25] = Drug metabolism in po dosed Sprague-Dawley rat bile assessed as M2 metabolite formation measured upto 24 hrs by UPLC-TOF-MS/MS analysis; format: ADME, organism-based; conditions: in vivo
KHOS/NP [26] = test: Antiproliferative activity against human KHOS cells assessed as inhibition of cell growth incubated for 72 hrs by SRB assay; format: functional, cell-based
[27] = Microsomal stability in monkey liver microsomes assessed as intrinsic clearance at 50 uM preincubated for 5 mins with NADPH followed by compound addition and measured upto 60 mins by LC-MS/MS analysis; format: ADME, Macaca mulatta, Microsome; conditions: rhesus monkey, read-out: CLH
[28] = biological target: Testis-specific serine/threonine-protein kinase 1 (Homo sapiens, UniProt Q9BXA7); test: Inhibition of TSSK1 (unknown origin)
Testis-specific serine/threonine-protein kinase 1, sequence (Q9BXA7 whole entry): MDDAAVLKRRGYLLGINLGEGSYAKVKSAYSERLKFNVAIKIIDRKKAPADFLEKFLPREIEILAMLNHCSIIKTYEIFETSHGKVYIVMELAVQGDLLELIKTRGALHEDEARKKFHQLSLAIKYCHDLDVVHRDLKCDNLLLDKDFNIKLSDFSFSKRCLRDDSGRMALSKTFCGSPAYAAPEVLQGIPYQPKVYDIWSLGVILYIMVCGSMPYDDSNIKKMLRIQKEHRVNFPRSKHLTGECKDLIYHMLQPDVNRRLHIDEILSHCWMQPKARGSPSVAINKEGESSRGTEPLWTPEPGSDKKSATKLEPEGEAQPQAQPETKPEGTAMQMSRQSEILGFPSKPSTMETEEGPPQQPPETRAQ

LNCaP = test: Antiproliferative activity against human LNCaP cells assessed as inhibition of cell growth incubated for 72 hrs by SRB method; format: functional, cell-based
786-0 [29] = test: Antitumor activity against human 786-0 cells xenografted in ig dosed BALB/c nude mouse assessed as tumor growth inhibition administered once daily for 22 days; format: functional, organism-based; conditions: dose 12.5-50 mg/kg, time 22.0 day
L02 = test: Antiproliferative activity against human HL7702 cells assessed as inhibition of cell growth incubated for 72 hrs by SRB method; format: cell-based; conditions: L02, 72 h
[30] = Antiproliferative activity against human 95-D cells assessed as inhibition of cell growth incubated for 72 hrs by SRB method; format: functional, cell-based
[31] = Drug metabolism in po dosed Sprague-Dawley rat feces assessed as M5 metabolite formation measured upto 24 hrs by UPLC-TOF-MS/MS analysis; format: ADME, organism-based; conditions: in vivo
[32] = biological target: Tyrosine-protein kinase JAK2 (Homo sapiens, UniProt O60674); test: Inhibition of JAK2 (unknown origin)
Tyrosine-protein kinase JAK2, sequence (O60674 whole entry): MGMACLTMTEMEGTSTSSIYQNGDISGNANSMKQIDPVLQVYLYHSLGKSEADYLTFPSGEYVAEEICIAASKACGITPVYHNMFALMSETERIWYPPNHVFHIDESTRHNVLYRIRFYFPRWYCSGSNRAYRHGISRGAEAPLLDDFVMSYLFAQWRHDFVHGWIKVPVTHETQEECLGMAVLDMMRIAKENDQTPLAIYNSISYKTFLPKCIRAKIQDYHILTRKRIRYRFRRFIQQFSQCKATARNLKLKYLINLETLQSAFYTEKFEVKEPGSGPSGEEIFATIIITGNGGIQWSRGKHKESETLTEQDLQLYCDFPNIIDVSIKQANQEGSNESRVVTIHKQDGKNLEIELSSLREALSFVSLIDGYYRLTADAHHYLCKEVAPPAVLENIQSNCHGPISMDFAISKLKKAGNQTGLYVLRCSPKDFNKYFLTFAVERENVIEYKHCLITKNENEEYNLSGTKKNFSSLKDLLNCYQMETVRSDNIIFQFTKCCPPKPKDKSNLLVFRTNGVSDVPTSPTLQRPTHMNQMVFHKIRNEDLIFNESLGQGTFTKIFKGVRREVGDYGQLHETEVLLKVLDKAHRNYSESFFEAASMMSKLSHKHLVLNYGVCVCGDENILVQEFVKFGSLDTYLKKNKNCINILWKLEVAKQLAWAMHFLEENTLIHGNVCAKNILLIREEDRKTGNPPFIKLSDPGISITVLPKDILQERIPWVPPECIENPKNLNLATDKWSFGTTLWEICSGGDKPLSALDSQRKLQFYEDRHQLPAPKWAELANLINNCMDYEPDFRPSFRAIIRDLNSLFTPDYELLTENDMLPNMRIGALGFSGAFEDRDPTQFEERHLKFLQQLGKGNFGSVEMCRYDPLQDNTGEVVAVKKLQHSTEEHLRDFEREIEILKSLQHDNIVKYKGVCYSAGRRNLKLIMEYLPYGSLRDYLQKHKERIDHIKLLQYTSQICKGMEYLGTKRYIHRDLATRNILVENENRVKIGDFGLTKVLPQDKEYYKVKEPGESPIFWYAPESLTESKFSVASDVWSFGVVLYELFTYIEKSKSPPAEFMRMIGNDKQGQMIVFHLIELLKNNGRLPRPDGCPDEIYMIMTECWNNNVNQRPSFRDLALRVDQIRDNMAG

786-0 [33] = test: Antiproliferative activity against human 786-0 cells assessed as inhibition of cell growth incubated for 72 hrs by SRB assay; format: functional, cell-based; conditions: 786-0, 72 h
769-P = test: Antiproliferative activity against human 769-P cells assessed as inhibition of cell growth incubated for 72 hrs by SRB method; format: functional, cell-based
[34] = Drug metabolism in po dosed Sprague-Dawley rat bile assessed as M5 metabolite formation measured upto 24 hrs by UPLC-TOF-MS/MS analysis; format: ADME, organism-based; conditions: in vivo

Which Tmax [1] does the source give for Cl.Cn1nccc1-c1ccc(C(=O)N[C@@H]2CNCC[C@H]2c2ccc(F)c(F)c2)c(F)c1 here?
The Tmax was 6.6 min.

What about the Tmax [2] of the same compound?
The Tmax was 8.67 h.

What about the Cmax [3] of the same compound?
The Cmax was 906 ng/mL.

And the IC50 [4]?
Its IC50 is 16.1 µM.

What about the IC50 (MDA-MB-231) of the same compound?
Its IC50 is 16.4 µM.

What about the AUC(0-t) at 24 h [5] of the same compound?
Its AUC(0-t) at 24 h is 459 ng·h/mL.

And the Activity [6]?
Its Activity is “Non-Toxic”.

And the Activity [7]?
The Activity was “Toxic”.

What about the IC50 (Cytochrome P450 3A5) of the same compound?
The IC50 was > 100 µM.

What about the Activity [8] of the same compound?
Its Activity is “Non-Toxic”.

What about the half-life at 50 µM [9] of the same compound?
The half-life at 50 µM was 5.6 h.

What about the Activity [10] of the same compound?
The Activity was “Non-Toxic”.

And the IC50 [11]?
Its IC50 is 0.004 µM.

And the IC50 (786-0 [12])?
The IC50 was 8.6 µM.

And the Activity [13]?
The Activity was “Non-Toxic”.

What about the IC50 (U-87 MG) of the same compound?
Its IC50 is 9.26 µM.

What about the Drug metabolism [14] of the same compound?
Its Drug metabolism is “Metabolite_Detected”.

And the IC50 [15]?
Its IC50 is 0.011 µM.

What about the AUC(0-t) at 72 h [16] of the same compound?
Its AUC(0-t) at 72 h is 2280 ng·h/mL.

And the IC50 (KHOS/NP [17])?
Its IC50 is 7.47 µM.

And the Activity (KHOS/NP [18])?
The Activity was “Active”.

What about the Drug metabolism [19] of the same compound?
The Drug metabolism was “Metabolite_Detected”.

And the Activity [20]?
The Activity was “Non-Toxic”.

And the Activity [21]?
Its Activity is “Non-Toxic”.

What about the Cmax [22] of the same compound?
The Cmax was 171 ng/mL.

And the Activity [23]?
The Activity was “Toxic”.

What about the Activity [24] of the same compound?
Its Activity is “Toxic”.

And the IC50 (HGC-27)?
Its IC50 is 0.68 µM.

And the IC50 (SMMC-7721)?
Its IC50 is 19.8 µM.

And the Drug metabolism [25]?
Its Drug metabolism is “Metabolite_Detected”.

And the IC50 (KHOS/NP [26])?
The IC50 was 14.9 µM.

What about the microsomal CLint at 50 µM [27] of the same compound?
Its microsomal CLint at 50 µM is 13.6 µL/min/mg.

And the IC50 [28]?
The IC50 was > 10 µM.

What about the IC50 (LNCaP) of the same compound?
The IC50 was 0.61 µM.

And the Activity (786-0 [29])?
The Activity was “Dose-Dependent Effect”.

What about the IC50 (L02) of the same compound?
Its IC50 is 5.4 µM.

What about the IC50 [30] of the same compound?
The IC50 was 1.03 µM.

What about the Drug metabolism [31] of the same compound?
Its Drug metabolism is “Metabolite_Detected”.

And the IC50 [32]?
The IC50 was > 10 µM.

And the IC50 (786-0 [33])?
The IC50 was 2.5 µM.

And the IC50 (769-P)?
The IC50 was 7.76 µM.

What about the Drug metabolism [34] of the same compound?
The Drug metabolism was “Metabolite_Detected”.
